Experimental data from patent US9969726B2, “Metabotropic glutamate receptor negative allosteric modulators (NAMS) and uses thereof” (Sanford-Burnham Medical Research Institute, priority 2014, dated 2018).
Read-outs that look alike come from different tables or passages of the source.

Legend:
rat mGlu2 receptor = rat mGlu2 receptor (Rattus norvegicus (Rat), UniProt P31421); assay: mGlu2 in vitro GIRK thallium flux assay; format: cell-based; conditions: NAM, EC80 glutamate, HEK-293 GIRK cells
In short: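 Cells expressing rat mGlu2 or mGlu3 with GIRK, plated overnight at 37 °C. Test compounds (0.3% DMSO, 10-point 1:3 series) preincubated 2.5 or 60 min, then thallium buffer plus EC80 glutamate added. Fluorescence slope 5–15 s after addition, normalised to vehicle and maximal agonist, fitted by four-parameter logistic.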

rat mGlu3 receptor = rat mGlu3 receptor (Rattus norvegicus (Rat), UniProt P31422); assay: mGlu3 in vitro GIRK thallium flux assay; format: cell-based; conditions: NAM; 2.5 min compound incubation; EC80 glutamate; HEK-293 GIRK cells
Sequence of rat mGlu3 receptor (P31422 23-879): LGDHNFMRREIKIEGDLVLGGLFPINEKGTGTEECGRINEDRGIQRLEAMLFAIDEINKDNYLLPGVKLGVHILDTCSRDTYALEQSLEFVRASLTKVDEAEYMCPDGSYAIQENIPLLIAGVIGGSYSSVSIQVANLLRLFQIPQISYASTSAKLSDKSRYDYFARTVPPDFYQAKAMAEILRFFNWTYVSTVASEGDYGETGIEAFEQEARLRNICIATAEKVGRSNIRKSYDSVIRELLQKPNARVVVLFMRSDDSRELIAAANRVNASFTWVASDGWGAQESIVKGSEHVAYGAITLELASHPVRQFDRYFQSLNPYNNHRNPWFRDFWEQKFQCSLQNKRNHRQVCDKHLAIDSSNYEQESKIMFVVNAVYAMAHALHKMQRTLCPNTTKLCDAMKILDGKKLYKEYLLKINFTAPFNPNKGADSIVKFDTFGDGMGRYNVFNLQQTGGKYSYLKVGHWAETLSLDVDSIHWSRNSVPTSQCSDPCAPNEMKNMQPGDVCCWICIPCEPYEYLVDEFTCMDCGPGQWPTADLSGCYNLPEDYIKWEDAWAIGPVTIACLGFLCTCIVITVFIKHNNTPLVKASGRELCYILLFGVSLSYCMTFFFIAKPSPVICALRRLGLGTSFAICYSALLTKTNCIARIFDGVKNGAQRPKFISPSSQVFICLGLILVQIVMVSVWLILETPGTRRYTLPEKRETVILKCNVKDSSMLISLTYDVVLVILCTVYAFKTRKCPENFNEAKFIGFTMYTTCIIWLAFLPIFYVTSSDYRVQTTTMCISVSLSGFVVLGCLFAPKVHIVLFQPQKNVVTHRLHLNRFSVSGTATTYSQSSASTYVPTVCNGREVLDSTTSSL
Procedure: All cell culture reagents were purchased from Invitrogen Corp. (Carlsbad, Calif.) unless otherwise noted. Compound activity at the group II (mGlu2 and mGlu3) mGlus was assessed using thallium flux through GIRK channels. Briefly, cells were plated into 384-well, black-walled, clear-bottomed poly-D-lysine-coated plates at a density of 15,000 cells/20 μL/well in DMEM containing 10% dialyzed FBS, 20 mM HEPES, and 100 units/mL penicillin/streptomycin (assay media). Plated cells were incubated overnight at 37° C. in the presence of 5% CO2. […] Cells were incubated for 1 h at room temperature, and the dye exchanged to assay buffer using an ELX405, leaving 20 μL/well. Test compounds were diluted to 2 times their final desired concentration in assay buffer (0.3% DMSO final concentration). […] Cell plates and compound plates were loaded onto a kinetic imaging plate reader (FDSS 6000 or 7000; Hamamatsu Corporation, Bridgewater, N.J.). Appropriate baseline readings were taken (10 images at 1 Hz; excitation, 470±20 nm; emission, 540±30 nm) and test compounds were added in a 20 μL volume and incubated for either 2.5 min or 60 min as indicated before the addition of 10 μL of thallium buffer with or without agonist. After the addition of agonist, data were collected for approximately an additional 2.5 min. Data were analyzed using Excel (Microsoft Corp, Redmond, Wash.). The slope of the fluorescence increase beginning 5 s after thallium/agonist addition and ending 15 s after thallium/agonist addition was calculated, corrected to vehicle and maximal agonist control slope values, and plotted in using either XLfit (ID Business Solutions Ltd) or Prism software (GraphPad Software, San Diego, Calif.) to generate concentration-response curves. Potencies were calculated from fits using a four-point parameter logistic equation. For concentration-response curve experiments, compounds were serially diluted 1:3 into 10 point concentration response curves and were transferred to daughter plates using an Echo acoustic plate reformatter (Labcyte, Sunnyvale, Calif.). Test compounds were applied and followed by EC80 concentrations of glutamate.

[1] = 2.5 min compound incubation, read-out: mGlu2 EC50 (μM) (2.5 min)
[2] = mGlu2 EC50 (μM) (60 min), 60 min compound incubation
[3] = read-out: mGlu2 EC50 (μM) (60 min), 60 min compound incubation

Sequence of rat mGlu2 receptor (P31421 19-872): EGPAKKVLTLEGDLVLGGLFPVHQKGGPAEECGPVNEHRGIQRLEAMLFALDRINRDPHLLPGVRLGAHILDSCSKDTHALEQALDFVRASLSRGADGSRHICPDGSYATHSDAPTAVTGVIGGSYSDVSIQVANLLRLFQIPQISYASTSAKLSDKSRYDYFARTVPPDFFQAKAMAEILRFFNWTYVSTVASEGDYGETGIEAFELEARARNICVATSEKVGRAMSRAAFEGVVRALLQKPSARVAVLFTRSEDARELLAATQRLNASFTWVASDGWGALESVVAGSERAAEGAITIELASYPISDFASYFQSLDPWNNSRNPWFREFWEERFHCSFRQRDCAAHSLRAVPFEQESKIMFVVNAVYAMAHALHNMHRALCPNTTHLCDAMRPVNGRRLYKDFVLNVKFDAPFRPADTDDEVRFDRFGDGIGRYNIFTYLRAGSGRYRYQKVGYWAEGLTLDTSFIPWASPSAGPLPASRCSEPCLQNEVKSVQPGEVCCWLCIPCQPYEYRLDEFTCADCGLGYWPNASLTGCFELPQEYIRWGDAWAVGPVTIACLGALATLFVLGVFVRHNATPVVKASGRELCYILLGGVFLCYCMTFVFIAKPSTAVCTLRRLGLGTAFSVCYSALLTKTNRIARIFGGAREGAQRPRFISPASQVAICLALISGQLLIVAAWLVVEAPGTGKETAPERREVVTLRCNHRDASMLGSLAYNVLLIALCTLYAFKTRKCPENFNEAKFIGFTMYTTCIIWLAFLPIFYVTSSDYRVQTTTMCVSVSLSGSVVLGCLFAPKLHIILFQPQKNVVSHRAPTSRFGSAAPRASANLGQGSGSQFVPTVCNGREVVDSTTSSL

Row | EC50 (rat mGlu2 receptor; [1]) [µM] | EC50 (rat mGlu2 receptor; [2]) [µM] | EC50 (rat mGlu3 receptor) [µM] | SMILES | EC50 (rat mGlu2 receptor; [3]) [µM]
1 | 0.59 | 1.48 | > 10 | Cn1nc(-c2cccc(-c3cccc(C(=O)O)c3)c2)nc1-c1ccccc1 [Example 50, 3′-(1-Methyl-5-phenyl-1H-1,2,4-triazol-3-yl)-[1,1′-biphenyl]-3-carboxylic Acid] | –
2 | > 10 | > 10 | 5.8 | O=C(O)c1cc(-c2cccc(-c3nc(-c4ccccc4)n(-c4ccccc4)n3)c2)ccc1F [Example 51, 3′-(1,5-Diphenyl-1H-1,2,4-triazol-3-yl)-4-fluoro-[1,1′-biphenyl]-3-carboxylic acid] | –
3 | > 10 | > 10 | 3.11 | O=C(O)c1cc(F)cc(-c2cccc(-c3nc(-c4ccccc4)n(-c4ccccc4)n3)c2)c1 [Example 52, 3′-(1,5-Diphenyl-1H-1,2,4-triazol-3-yl)-5-fluorobiphenyl-3-carboxylic Acid] | –
4 | > 10 | 3.67 | 4.29 | O=C(O)c1cccc(-c2cccc(-c3nc(-c4cccs4)n(-c4ccccc4)n3)c2)c1 [Example 53, 3′-(1-Phenyl-5-(thiophen-2-yl)-1H-1,2,4-triazol-3-yl)-[1,1′-biphenyl]-3-carboxylic Acid] | –
5 | > 10 | 2.71 | 3.9 | O=C(O)c1cccc(-c2cccc(-c3nc(-c4ccccc4)n(Cc4ccccc4)n3)c2)c1 [Example 54, 3′-(1-Benzyl-5-phenyl-1H-1,2,4-triazol-3-yl)-[1,1′-biphenyl]-3-carboxylic Acid] | –
6 | > 10 | 6.58 | 2.96 | COc1ccc(-n2nc(-c3cccc(-c4cccc(C(=O)O)c4)c3)nc2-c2ccccc2)cc1 [Example 55, 3′-(1-(4-Methoxyphenyl)-5-phenyl-1H-1,2,4-triazol-3-yl)-[1,1′-biphenyl]-3-carboxylic Acid] | –
7 | 3.22 | > 10 | > 10 | O=C(O)c1cccc(-c2cccc(-c3nc(-c4ccccc4)n(-c4cccc(F)c4)n3)c2)c1 [Example 56, 3′-(1-(3-Fluorophenyl)-5-phenyl-1H-1,2,4-triazol-3-yl)-[1,1′-biphenyl]-3-carboxylic Acid] | –
8 | > 10 | > 10 | > 10 | O=C(O)c1cccc(-c2cccc(-c3nc(-c4ccccc4)n(-c4cccc5ccccc45)n3)c2)c1 [Example 57, 3′-(1-(Naphthalen-1-yl)-5-phenyl-1H-1,2,4-triazol-3-yl)-[1,1′-biphenyl]-3-carboxylic Acid] | –
9 | > 10 | > 10 | 5.56 | O=C(O)c1cccc(-c2cccc(-c3nc(-c4ccc(C(F)(F)F)nc4)n(-c4ccccc4)n3)c2)c1 [Example 58, 3′-(1-Phenyl-5-(6-(trifluoromethyl)pyridin-3-yl)-1H-1,2,4-triazol-3-yl)-[1,1′-biphenyl]-3-carboxylic Acid] | –
10 | > 10 | 3.78 | > 10 | O=C(O)c1cccc(-c2cccc(-c3nc(-c4ccoc4)n(-c4ccccc4)n3)c2)c1 [Example 59, 3′-(5-(Furan-3-yl)-1-phenyl-1H-1,2,4-triazol-3-yl)-[1,1′-biphenyl]-3-carboxylic acid] | –
11 | > 10 | > 10 | 5.3 | O=C(O)c1ccc(-c2cccc(-c3nc(-c4ccccc4)n(-c4ccccc4)n3)c2)cc1 [Example 60, 3′-(1,5-Diphenyl-1H-1,2,4-triazol-3-yl)-[1,1′-biphenyl]-4-carboxylic Acid] | –
12 | > 10 | > 30 | 0.21 | O=C(O)c1ccoc1-c1cccc(-c2nc(-c3ccccc3)n(-c3ccccc3)n2)c1 [Example 62, 2-(3-(1,5-Diphenyl-1H-1,2,4-triazol-3-yl)phenyl)furan-3-carboxylic Acid] | –
13 | > 10 | > 10 | 4.45 | O=C(O)c1ccc(F)c(-c2cccc(-c3nc(-c4ccccc4)n(-c4ccccc4)n3)c2)c1 [Example 63, 3′-(1,5-Diphenyl-1H-1,2,4-triazol-3-yl)-6-fluoro-[1,1′-biphenyl]-3-carboxylic acid] | –
14 | > 10 | > 30 | > 10 | CC(C)n1nc(-c2cccc(-c3cccc(C(=O)O)c3)c2)nc1-c1ccccc1 [Example 64, 3′-(1-Isopropyl-5-phenyl-1H-1,2,4-triazol-3-yl)-[1,1′-biphenyl]-3-carboxylic acid] | –
15 | > 10 | > 30 | > 30 | O=C(O)c1cccc(-c2cccc(-c3n[nH]c(-c4ccccc4)n3)c2)c1 [Example 65, 3′-(5-Phenyl-1H-1,2,4-triazol-3-yl)-[1,1′-biphenyl]-3-carboxylic Acid] | –

Continued, molecule first:

Row | SMILES | EC50 (rat mGlu2 receptor; [1]) [µM] | EC50 (rat mGlu2 receptor; [2]) [µM] | EC50 (rat mGlu3 receptor) [µM] | EC50 (rat mGlu2 receptor; [3]) [µM]
16 | O=C(O)c1ccccc1-c1cccc(-c2nc(-c3ccccc3)n(-c3ccccc3)n2)c1 [Example 61, 3′-(1,5-Diphenyl-1H-1,2,4-triazol-3-yl)-[1,1′-biphenyl]-2-carboxylic Acid] | > 30 | – | > 10 | > 30
17 | O=C(O)c1cccc(-c2cccc(-c3nc(-c4ccccc4)nn3-c3ccccc3)c2)c1 [Example 66, 3′-(1,3-Diphenyl-1H-1,2,4-triazol-5-yl)-[1,1′-biphenyl]-3-carboxylic Acid] | > 10 | – | > 10 | > 10
18 | O=C(O)c1cccc(-c2cccc(-c3cn(-c4ccccc4)c(-c4ccccc4)n3)c2)c1 [Example 67, 3′-(1,2-Diphenyl-1H-imidazol-4-yl)-[1,1′-biphenyl]-3-carboxylic Acid] | > 10 | – | > 10 | > 10
19 | O=C(O)c1cccc(-c2cccc(-c3cc(-c4ccccc4)[nH]n3)c2)c1 [Example 68, 3′-(5-Phenyl-1H-pyrazol-3-yl)-[1,1′-biphenyl]-3-carboxylic Acid] | > 10 | – | > 10 | > 30
20 | O=C(O)c1cccc(-c2cccc(-c3nc(-c4ccc(C(F)(F)F)nc4)cc(C(F)(F)F)n3)c2)c1 [Example 69, 3′-(4-(Trifluoromethyl)-6-(6-(trifluoromethyl)pyridin-3-yl)pyrimidin-2-yl)biphenyl-3-carboxylic Acid] | 0.95 | – | 1.07 | 0.11
21 | O=C(O)c1cc(-c2cccc(-c3nc(-c4ccc(C(F)(F)F)nc4)cc(C(F)(F)F)n3)c2)ccc1Cl [Example 70, 4-Chloro-3′-(4-(trifluoromethyl)-6-(6-(trifluoromethyl)pyridin-3-yl)pyrimidin-2-yl)biphenyl-3-carboxylic Acid] | 1.26 | – | 1.58 | 0.2
22 | O=C(O)c1ccc(-c2cccc(-c3nc(-c4ccc(C(F)(F)F)nc4)cc(C(F)(F)F)n3)c2)cc1 [Example 71, 3′-(4-(Trifluoromethyl)-6-(6-(trifluoromethyl)pyridin-3-yl)pyrimidin-2-yl)biphenyl-4-carboxylic Acid] | > 10 | – | > 10 | > 10
23 | O=C(O)c1ccccc1-c1cccc(-c2nc(-c3ccc(C(F)(F)F)nc3)cc(C(F)(F)F)n2)c1 [Example 72, 3′-(4-(Trifluoromethyl)-6-(6-(trifluoromethyl)pyridin-3-yl)pyrimidin-2-yl)biphenyl-2-carboxylic Acid] | > 10 | – | > 10 | > 10
24 | O=C(O)c1ccc(-c2cccc(-c3nc(-c4ccc(C(F)(F)F)nc4)cc(C(F)(F)F)n3)c2)cc1Cl [Example 74, 3-Chloro-3′-(4-(trifluoromethyl)-6-(6-(trifluoromethyl)pyridin-3-yl)pyrimidin-2-yl)biphenyl-4-carboxylic Acid] | 6.76 | – | 6.52 | > 10
25 | O=C(O)c1cc(-c2cccc(-c3nc(-c4ccc(C(F)(F)F)nc4)cc(C(F)(F)F)n3)c2)cc([N+](=O)[O-])c1 [Example 75, 5-Nitro-3′-(4-(trifluoromethyl)-6-(6-(trifluoromethyl)pyridin-3-yl)pyrimidin-2-yl)biphenyl-3-carboxylic Acid] | 1.27 | – | > 10 | 0.5
26 | COc1ccc(C(=O)O)cc1-c1cccc(-c2nc(-c3ccc(C(F)(F)F)nc3)cc(C(F)(F)F)n2)c1 [Example 77, 6-Methoxy-3′-(4-(trifluoromethyl)-6-(6-(trifluoromethyl)pyridin-3-yl)pyrimidin-2-yl)biphenyl-3-carboxylic Acid] | 0.96 | – | 1.59 | 0.29
